Measured values: patent US8962838B2, “Platinum complexes and their use” (Westfaelische Wilhelms-Universitaet Muenster, priority 2011, dated 2015)

Tested on: HeLa S3 cells
Assay: Cytotoxicity experiments, percentage of viable cells by Casy-1 cell counter
Format: cell-based
Settings: 24 h incubation
Protocol: Cytotoxicity Experiments: HeLa S3 cells were seeded into 12-well tissue culture dishes in a density of approximately 80000 cells per well. The logarithmically growing cells were cultured for 24 h in Ham's F12 nutrient mixture containing 10% fetal bovine serum, 100 U penicillin per mL and […] streptomycin per mL and incubated at 37° C. with 5% CO2 in air and 100% humidity until the Pt-complexes were added. The cytotoxicity of the Pt-complexes was elucidated by quantifying the percentage of viable cells. Cell viability was measured after 24 h Pt-complex incubation and trypsinizing of cells, by an automatic cell counter (Casy-1, Roche Innovatis AG). These measurements are based on non-invasive (dye-free) electrical current exclusion with signal evaluation via pulse area analysis and allow the structural integrity of cells (membrane integrity and cell death).

SMILES: C[S+](C)[O-] [DMSO]
- DMSO concentration at which no toxic effect was detectable: Below 1.8%
- cytotoxicity (2.5% DMSO): a high amount of viable Hela-S3 cells but still some dead cells were detected
- cytotoxicity (DMSO concentration from 10% down to 5%): extremely toxic
